Experimental data: patent US8722849B2, “Polypeptides” (Novo Nordisk A/S, priority 2011, dated 2014)
pEC50: −log10 of the molar value. Read-outs that look alike come from different tables or passages of the source. Starred links: 1 amine or outer side, 2 acyl side, 3 side chain; linkers in the order of their positions; H or OH if unused. Positions of bridges follow the written chain, without caps; N, C: chain ends. Residues, ends and D or L forms follow the SMILES beside them. *: point of attachment. C20 diacid = O=C(O)CCCCCCCCCCCCCCCCCCC(=O)*; γGlu = O=C(O)[C@H](CCC(=O)[*:2])N[*:1]

What was measured:
[1] = Assay (III) ThT fibrillation assay for physical stability; assay type: physicochemical
Procedure, shortened: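 Freshly prepared formulations, pH-adjusted, with 1 μM ThT; four or eight replicates incubated at 37 °C under 960 rpm orbital shaking. Fluorescence (ex 444/em 485 nm) read every 20 min; […]. Peptide concentration measured by RP-HPLC before and after the run.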

[2] = molecular target: T1, human calcitonin receptor (Homo sapiens, UniProt P30988); experiment: Assay (II)a functional CRE-luciferase assay, human calcitonin receptor; assay type: cell-based; conditions: Table 7; human calcitonin (CTa) receptor
T1 construct: expressed in transfected cells; host or cells: BHK570
T1 sequence (P30988 25-474): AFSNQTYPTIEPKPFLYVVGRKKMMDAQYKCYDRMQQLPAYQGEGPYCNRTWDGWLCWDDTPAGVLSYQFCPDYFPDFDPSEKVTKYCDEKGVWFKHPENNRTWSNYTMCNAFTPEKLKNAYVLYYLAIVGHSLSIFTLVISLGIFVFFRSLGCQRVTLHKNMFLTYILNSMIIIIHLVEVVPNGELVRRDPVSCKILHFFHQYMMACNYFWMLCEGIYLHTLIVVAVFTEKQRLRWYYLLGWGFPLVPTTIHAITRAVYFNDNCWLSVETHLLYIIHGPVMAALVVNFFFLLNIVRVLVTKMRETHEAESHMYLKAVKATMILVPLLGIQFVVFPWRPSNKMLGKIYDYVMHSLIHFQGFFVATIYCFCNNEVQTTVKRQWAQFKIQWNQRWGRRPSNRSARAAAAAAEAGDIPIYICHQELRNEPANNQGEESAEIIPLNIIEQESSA

[3] = molecular target: T2, human amylin receptor (amylin 3(a) receptor: human calcitonin receptor + RAMP-3) (Homo sapiens, UniProt O60896+P30988); experiment: Assay (II)a functional CRE-luciferase assay, human amylin receptor; assay type: cell-based; conditions: Table 2; BHK amylin 3(a)-receptor/CRE-luc cells
T2 construct: expressed in transfected cells; host or cells: BHK570
T2 sequence (P30988 25-474): T1 sequence (P30988 25-474)
T2 sequence (O60896 24-148 partner): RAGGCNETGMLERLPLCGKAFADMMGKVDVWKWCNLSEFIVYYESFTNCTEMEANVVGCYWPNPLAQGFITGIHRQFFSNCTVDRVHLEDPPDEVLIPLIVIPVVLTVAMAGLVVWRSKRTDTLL

[4] = Assay (IV) determination of solubility; assay type: physicochemical
Procedure, shortened: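 Polypeptide in water (~500 nmol/ml) mixed 1:1 with 100 mM glycylglycine (pH 3.0–5.0) or bistrispropane (pH 6.0–8.0) buffers. Held 18 hours at room temperature, then centrifuged. Polypeptide remaining in solution quantified by HPLC.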

[5] = bistrispropane buffer, pH 6, pH 6.0, read-out: Solubility pH 6.0
[6] = bistrispropane buffer, pH 6.5, pH 6.5, read-out: Solubility pH 6.5
[7] = bistrispropane buffer, pH 7, pH 7.0, 18 hours at room temperature, Table 3, read-out: Solubility pH 7.0
[8] = bistrispropane buffer, pH 7, pH 7.0, read-out: Solubility pH 7.0
[9] = bistrispropane buffer, pH 7.5, pH 7.5, read-out: Solubility pH 7.5
[10] = bistrispropane buffer, pH 8, pH 8.0, read-out: Solubility pH 8.0
[11] = glycylglycine buffer, pH 3, pH 3.0, read-out: Solubility pH 3.0
[12] = glycylglycine buffer, pH 4, pH 4.0, 18 hours at room temperature, Table 2, read-out: Solubility pH 4.0
[13] = glycylglycine buffer, pH 4, pH 4.0, read-out: Solubility pH 4.0
[14] = glycylglycine buffer, pH 5, pH 5.0, read-out: Solubility pH 5.0

## CC[C@H](C)[C@H](NC(=O)[C@@H]1CCCN1C(=O)CNC(=O)[C@H](Cc1ccccc1)NC(=O)[C@H](CC(N)=O)NC(=O)[C@H](CC(N)=O)NC(=O)[C@H](CO)NC(=O)[C@H](CO)NC(=O)[C@H](Cc1c[nH]cn1)NC(=O)[C@H](Cc1c[nH]cn1)NC(=O)[C@H](CC(C)C)NC(=O)[C@H](Cc1ccccc1)NC(=O)[C@H](CCC(=O)O)NC(=O)[C@H](C)NC(=O)[C@H](CC(C)C)NC(=O)[C@H](CCCNC(=N)N)NC(=O)[C@H](CCC(N)=O)NC(=O)[C@@H](NC(=O)[C@H](C)NC(=O)[C@@H]1CSSC[C@H](NC(=O)[C@H](CCC(=O)O)NC(=O)[C@H](CCCNC(=N)N)NC(=O)[C@H](CCC(=O)O)NC(=O)CC[C@H](NC(=O)CCCCCCCCCCCCCCCCCCC(=O)O)C(=O)O)C(=O)N[C@@H](CC(N)=O)C(=O)N[C@@H]([C@@H](C)O)C(=O)N[C@@H](C)C(=O)N[C@@H]([C@@H](C)O)C(=O)N1)[C@@H](C)O)C(=O)N[C@@H](CC(C)C)C(=O)N1CCC[C@H]1C(=O)N1CCC[C@H]1C(=O)N[C@H](C(=O)N[C@@H](CC(N)=O)C(=O)N[C@H](C(=O)NCC(=O)N[C@@H](CO)C(=O)N[C@@H](CC(N)=O)C(=O)N[C@H](C(=O)N1CCC[C@H]1C(N)=O)[C@@H](C)O)C(C)C)[C@@H](C)O [Example 123, N-alpha-[(S)-4-Carboxy-4-(19-carboxynonadecanoylamino)butyryl]-Glu-Arg-[Glu1,Glu14,His17,Pro37]-pramlintide] ({C20 diacid-γGlu}-ERECNTATCATQRLAEFLHHSSNNFGPILPPTNVGSNTP-NH2; disulfide 4-9 (inferred))
[1]; ThT fibrillation assay
  ThT pH 4.0 lag time (h): 8.7 h
[2]
  pEC50: 9.42
[3]
  pEC50: 9.87
[4]; [5]
  solubility at 18 h: > 200 µM
[4]; [6]
  solubility at 18 h: > 200 µM
[4]; [7]
  solubility at 18 h: > 200 µM
[4]; [8]
  solubility at 18 h: > 200 µM
[4]; [9]
  solubility at 18 h: > 200 µM
[4]; [10]
  solubility at 18 h: > 200 µM
[4]; [11]
  solubility at 18 h: > 200 µM
[4]; [12]
  solubility at 18 h: > 200 µM
[4]; [13]
  solubility at 18 h: > 200 µM
[4]; [14]
  solubility at 18 h: > 200 µM

## CC[C@H](C)[C@H](NC(=O)[C@@H]1CCCN1C(=O)CNC(=O)[C@H](Cc1ccccc1)NC(=O)[C@H](CC(N)=O)NC(=O)[C@H](CC(N)=O)NC(=O)[C@H](CO)NC(=O)[C@H](CO)NC(=O)[C@H](Cc1c[nH]cn1)NC(=O)[C@H](CCCNC(=N)N)NC(=O)[C@H](CC(C)C)NC(=O)[C@H](Cc1ccccc1)NC(=O)[C@H](CCC(=O)O)NC(=O)[C@H](C)NC(=O)[C@H](CC(C)C)NC(=O)[C@H](CCCNC(=N)N)NC(=O)[C@H](CCC(N)=O)NC(=O)[C@@H](NC(=O)[C@H](C)NC(=O)[C@@H]1CSSC[C@H](NC(=O)[C@H](CCC(=O)O)NC(=O)[C@H](CCCNC(=N)N)NC(=O)[C@H](CCC(=O)O)NC(=O)CC[C@H](NC(=O)CCCCCCCCCCCCCCCCCCC(=O)O)C(=O)O)C(=O)N[C@@H](CC(N)=O)C(=O)N[C@@H]([C@@H](C)O)C(=O)N[C@@H](C)C(=O)N[C@@H]([C@@H](C)O)C(=O)N1)[C@@H](C)O)C(=O)N[C@@H](CC(C)C)C(=O)N1CCC[C@H]1C(=O)N1CCC[C@H]1C(=O)N[C@H](C(=O)N[C@@H](CC(N)=O)C(=O)N[C@H](C(=O)NCC(=O)N[C@@H](CO)C(=O)N[C@@H](CC(N)=O)C(=O)N[C@H](C(=O)N1CCC[C@H]1C(N)=O)[C@@H](C)O)C(C)C)[C@@H](C)O [Example 124, N-alpha-[(S)-4-Carboxy-4-(19-carboxynonadecanoylamino)butyryl]-Glu-Arg-[Glu1,Glu14,Arg17,Pro37]-pramlintide] ({C20 diacid-γGlu}-ERECNTATCATQRLAEFLRHSSNNFGPILPPTNVGSNTP-NH2; disulfide 4-9 (inferred))
[1]; Table 8
  ThT pH 4.0 lag time: >45 h
[1]; Table 9
  ThT pH 4.0 lag time: >45 h
[1]; ThT fibrillation assay
  ThT pH 4.0 lag time: >45 h
  ThT pH 4.0 lag time (h): >45 h
[2]
  pEC50: 9.44
[3]
  pEC50: 10.05
[4]; [5]
  solubility at 18 h: > 200 µM
[4]; [6]
  solubility at 18 h: > 200 µM
[4]; [7]
  solubility at 18 h: > 200 µM
[4]; bistrispropane buffer, pH 7, pH 7.0, Table 8, read-out: Solubility pH 7.0
  solubility at 18 h: > 200 µM
[4]; bistrispropane buffer, pH 7, pH 7.0, Table 9, read-out: Solubility pH 7.0
  solubility at 18 h: > 200 µM
[4]; [8]
  solubility at 18 h: > 200 µM
[4]; bistrispropane buffer, pH 7.5, pH 7.5, Table 9, read-out: Solubility pH 7.5
  solubility at 18 h: > 200 µM
[4]; [9]
  solubility at 18 h: > 200 µM
[4]; [10]
  solubility at 18 h: > 200 µM
[4]; [11]
  solubility at 18 h: > 200 µM
[4]; [12]
  solubility at 18 h: > 200 µM
[4]; [13]
  solubility at 18 h: > 200 µM
[4]; [14]
  solubility at 18 h: > 200 µM

## CC[C@H](C)[C@H](NC(=O)[C@@H]1CCCN1C(=O)CNC(=O)[C@H](Cc1ccccc1)NC(=O)[C@H](CC(N)=O)NC(=O)[C@H](CC(N)=O)NC(=O)[C@H](CO)NC(=O)[C@H](CO)NC(=O)[C@H](Cc1c[nH]cn1)NC(=O)[C@H](Cc1c[nH]cn1)NC(=O)[C@H](CC(C)C)NC(=O)[C@H](Cc1ccccc1)NC(=O)[C@H](CCC(=O)O)NC(=O)[C@H](C)NC(=O)[C@H](CC(C)C)NC(=O)[C@H](CCCNC(=N)N)NC(=O)[C@H](CCC(N)=O)NC(=O)[C@@H](NC(=O)[C@H](C)NC(=O)[C@@H]1CSSC[C@H](NC(=O)[C@H](CCC(=O)O)NC(=O)[C@H](CCCNC(=N)N)NC(=O)[C@H](CCC(=O)O)NC(=O)[C@H](CCC(=O)O)NC(=O)CCCCCCCCCCCCCCCCCCC(=O)O)C(=O)N[C@@H](CC(N)=O)C(=O)N[C@@H]([C@@H](C)O)C(=O)N[C@@H](C)C(=O)N[C@@H]([C@@H](C)O)C(=O)N1)[C@@H](C)O)C(=O)N[C@@H](CC(C)C)C(=O)N1CCC[C@H]1C(=O)N1CCC[C@H]1C(=O)N[C@H](C(=O)N[C@@H](CC(N)=O)C(=O)N[C@H](C(=O)NCC(=O)N[C@@H](CO)C(=O)N[C@@H](CC(N)=O)C(=O)N[C@H](C(=O)N1CCC[C@H]1C(N)=O)[C@@H](C)O)C(C)C)[C@@H](C)O [Example 125, N-alpha-(19-carboxynonadecanoyl)-Glu-Glu-Arg-[Glu1,Glu14,His17,Pro37]-pramlintide] ({C20 diacid}-EERECNTATCATQRLAEFLHHSSNNFGPILPPTNVGSNTP-NH2; disulfide 5-10 (inferred); C-terminus assumed)
[1]; ThT fibrillation assay
  ThT pH 4.0 lag time (h): 19 h
[2]
  pEC50: 9.35
[3]
  pEC50: 9.54
[4]; [5]
  solubility at 18 h: > 200 µM
[4]; [6]
  solubility at 18 h: > 200 µM
[4]; [7]
  solubility at 18 h: > 200 µM
[4]; [8]
  solubility at 18 h: > 200 µM
[4]; [9]
  solubility at 18 h: > 200 µM
[4]; [10]
  solubility at 18 h: > 200 µM
[4]; [11]
  solubility at 18 h: > 200 µM
[4]; [12]
  solubility at 18 h: > 200 µM
[4]; [13]
  solubility at 18 h: > 200 µM
[4]; [14]
  solubility at 18 h: > 200 µM
